What was measured:
Aβ42 [1] = biological target: T1, Aβ42 (Homo sapiens, UniProt P05067); assay: Chemical kinetics analysis of Aβ42 aggregation profiles (rate constants); type: biochemical; conditions: 2 μM Aβ42; increasing compound concentrations
T1 construct: […]; made in house; host or cells: E. coli BL21 Gold (DE3)
Source text: The time evolution of the total fibril mass concentration is described as a function only of the initial conditions and the rate constants of the system by the integrated rate law given by Eq. (54) in Cohen et al., J Chem Phys 135, 065106, 2011.
These are related to the rate of formation of new aggregates through primary pathways λ=√{square root over (2k+knm(0)^n^c)} and through secondary pathways κ=√{square root over (2k+k2m(0)^n^2^+1)}, where the initial concentration of soluble monomers is denoted by m(0), nc and n2 describe the dependencies of the primary and secondary pathways on the monomer concentration (nc=n2=2 for Aβ42), and kn, k+ and k2 are the rate constants of the primary nucleation, elongation and secondary nucleation, respectively (Cohen et al., Proc Natl Acad Sci USA, 110(24), 9758-63, 2013). […]
A quantitative analysis was carried out on the effects of the molecules by matching the experimental aggregation profiles to kinetic curves calculated using the rate laws derived from a master equation that relates the time evolution of fibril formation to the rate constants of the different microscopic events. In this approach, the aggregation profiles in the presence of an inhibitor are described by introducing into the rate laws suitable perturbations to each of the microscopic rate constants evaluated in the absence of the inhibitor. […]

Aβ42 [2] = biological target: T1, Aβ42; assay: Seeded Aβ42 aggregation kinetics (2% or 50% preformed fibril seeds); type: biochemical; conditions: 2 μM Aβ42
Procedure: For the seeded experiments, preformed fibrils were prepared just prior to the experiment. Kinetic experiments were set up as described above for 5 μM Aβ42 samples in 20 mM sodium phosphate buffer, pH 8 with 200 μM EDTA, 0.02% NaN3 and 20 μM ThT. The ThT fluorescence was monitored for 3 hours to verify the formation of fibrils. Samples were then collected from the wells into low-binding tubes. Under the considered conditions (i.e. 5 μM Aβ42), the monomer concentration is negligible at equilibrium. The final concentration of fibrils, in monomer equivalents, was considered equal to the initial concentration of monomer. Fibrils were then added to freshly prepared monomer in order to reach either 2% or 50% final concentration of seeds in the absence or the presence of Netoglitazone.
Inhibitors can interfere with the aggregation process by inhibiting one or more of the individual microscopic steps. We can identify the microscopic events that are inhibited by the chemical compounds by fitting the integrated rate law (Eq. (54) in Cohen et al., J Chem Phys 135, 065106) to the macroscopic aggregation profiles and comparing the fitted set of microscopic rate constants (k+k2 and k+kn in the absence of pre-formed seeds; k+ and k2 in the presence of pre-formed seeds where primary nucleation is bypassed) required to describe the time evolution of the fibril formation in the absence and presence of Netoglitazone. The analysis is analogous to that carried out in Habchi et al., Proc Natl Acad Sci USA; 114(2):E200-E208, 2017 to study the effects of other small molecules on Aβ42 aggregation.

Aβ42 [3] = biological target: T1, Aβ42; assay: Aβ42 aggregation kinetics in human CSF; type: biochemical; conditions: 66% CSF; 1.25 and 5-fold excess
Procedure: For the experiments of Aβ42 aggregation kinetics in human CSF, monomeric solutions of 3 μM Aβ42 were prepared similar to above with the only exception that the buffer was 20 mM Hepes, pH 8 supplemented with 1 mM CaCl2 at 150 mM NaCl. The obtained monomer was diluted with the […] in order to reach 66% final concentration of CSF, in which the effect of CSF is close to maximum. Aβ42 aggregation kinetics were performed in the absence and the presence of 1.25 and 5-fold excess of Netoglitazone.

NL5901 (α-syn worms) = assay: Automated motility assay, α-syn worms; type: in vivo, C. elegans; conditions: same concentration range; compared with effect in Aβ worms
Procedure: NL5901 (pkIs2386 [α-synuclein::YFP unc-119(+)]) (“α-syn worms”), in which α-synuclein fused to YFP relocates to inclusions, which are visible as early as day 2 after hatching and increase in number and size during the aging of the animals, up to late adulthood (day 17) (T. J. Van Ham et al., C. elegans model identifies genetic modifiers of α-synuclein inclusion formation during aging. PLoS Genetics. 4 (2008));
Briefly, Netoglitazone stocks (5 mM in 100% DMSO) were used at an appropriate concentration to seed 9-cm NGM plates. Plates were then placed in a laminar flow hood at room temperature (22° C.) for up to 4 hours to dry. […]
All C. elegans populations were cultured at 20° C. and developmentally synchronized from a 4 h egg-lay. At 64-72 h post-egg-lay (time zero), individuals were transferred to FUDR plates, and body movements were assessed over the times indicated. At different ages, the animals were washed off the plates with M9 buffer and spread over an OP-50 unseeded 9 cm plate, after which their movements were recorded at 20 fps using a recently developed microscopic procedure (M. Perni et al., Massively parallel C. elegans tracking provides multi-dimensional fingerprints for phenotypic discovery. J. Neurosci. Methods. 306, 57-67 (2018)) for 1 min. Up to 600 animals were counted in each experiment in duplicate unless stated otherwise. […]

T1 sequence (P05067 671-713): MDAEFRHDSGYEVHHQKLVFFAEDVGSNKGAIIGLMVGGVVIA

Question: With `O=C1NC(=O)C(Cc2ccc3cc(OCc4ccccc4F)ccc3c2)S1` (stereo not drawn) [Netoglitazone] as the compound, how does the “effect on rate constants of primary (knk+) and secondary (k2k+) pathways” value (Aβ42 [1]) read?
Answer: Its value is “can affect both nucleation pathways”.

Question: And the “decrease of rate constant of surface-catalyzed secondary nucleation (k2)” value (Aβ42 [2]; 2% seeds, 20-fold excess)?
Answer: The value was “about 80%”.

Question: What about the “inhibition of secondary pathways (k2k+) with 2% preformed seeds” value (Aβ42 [2]; 2% seeds, range of concentrations) of the same compound?
Answer: The value was “concentration-dependent inhibition of secondary pathways”.

Question: What about the “effect on aggregation kinetics with 50% preformed seeds (elongation)” value (Aβ42 [2]; 50% seeds, up to 20-fold excess) of the same compound?
Answer: The value was “did not affect the aggregation kinetics”.

Question: What about the “delay of Aβ42 aggregation kinetics in 66% human CSF” value (Aβ42 [3]) of the same compound?
Answer: The value was “significantly delayed the aggregation kinetics”.

Question: What about the “effect on mobility of α-syn worms” value (NL5901 (α-syn worms)) of the same compound?
Answer: The value was “negligible”.

Reference: patent US20210145802A1, “THERAPY FOR OPHTHALMOLOGICAL CONDITIONS” (WREN THERAPEUTICS LIMITED, priority 2018, published 2021)
